Active and inactive are the calls of the source. Rule as the data show it, for most assays here: actives have a measured EC50 and inactives only a lower limit.
How the values were obtained:
[1] = target: T1, Cytochrome P450 1A2 (Homo sapiens, UniProt P05177);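 also: PubChem cytochrome P450 panel assay, CYP1A2 panel member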
T1 sequence (P05177 whole entry): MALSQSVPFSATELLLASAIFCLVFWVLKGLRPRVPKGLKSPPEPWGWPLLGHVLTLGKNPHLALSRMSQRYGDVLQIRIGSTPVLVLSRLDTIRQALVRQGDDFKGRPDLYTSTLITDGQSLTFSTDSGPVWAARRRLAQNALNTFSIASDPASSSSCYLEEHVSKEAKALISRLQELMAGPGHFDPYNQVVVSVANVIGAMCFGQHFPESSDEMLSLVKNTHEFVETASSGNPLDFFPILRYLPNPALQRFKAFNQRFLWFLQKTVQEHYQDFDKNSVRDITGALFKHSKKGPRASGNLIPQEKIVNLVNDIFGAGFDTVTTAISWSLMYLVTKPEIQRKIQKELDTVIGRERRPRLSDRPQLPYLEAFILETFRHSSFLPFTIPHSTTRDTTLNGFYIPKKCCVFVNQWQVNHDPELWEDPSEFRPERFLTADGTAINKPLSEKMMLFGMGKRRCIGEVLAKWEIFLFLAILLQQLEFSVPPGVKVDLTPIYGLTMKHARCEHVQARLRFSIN

[2] = NIH3T3 cell viability loss – ATP luminescence, mouse fibroblasts, counter-screen, dose response (AID 2010); assay type: functional, cell-based;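 also: cells exposed to compound for about 90 hours before reading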
[3] = Trypanosoma cruzi growth suppression in host cells – NIH3T3 host cells, beta-gal luminescence, confirmation (AID 2044); assay type: functional, cell-based;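 also: intracellular parasites grown in NIH/3T3 mouse fibroblasts as host cells; luminescent beta-galactosidase reporter signal from transgenic T. cruzi replicating inside host cells; inhibitors lower the luminescence signal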
[4] = target: T2, Protein RecA (Mycobacterium tuberculosis, UniProt P9WHJ3); test: Fluorescence Cell-Free Homogeneous Dose Retest to Identify Inhibitors of RecA-Intein Splicing Activity. [Related pubchem assays (depositor defined):AID2097, AID2223, AID489010, AID492950]; assay type: functional
T2 sequence (P9WHJ3 whole entry): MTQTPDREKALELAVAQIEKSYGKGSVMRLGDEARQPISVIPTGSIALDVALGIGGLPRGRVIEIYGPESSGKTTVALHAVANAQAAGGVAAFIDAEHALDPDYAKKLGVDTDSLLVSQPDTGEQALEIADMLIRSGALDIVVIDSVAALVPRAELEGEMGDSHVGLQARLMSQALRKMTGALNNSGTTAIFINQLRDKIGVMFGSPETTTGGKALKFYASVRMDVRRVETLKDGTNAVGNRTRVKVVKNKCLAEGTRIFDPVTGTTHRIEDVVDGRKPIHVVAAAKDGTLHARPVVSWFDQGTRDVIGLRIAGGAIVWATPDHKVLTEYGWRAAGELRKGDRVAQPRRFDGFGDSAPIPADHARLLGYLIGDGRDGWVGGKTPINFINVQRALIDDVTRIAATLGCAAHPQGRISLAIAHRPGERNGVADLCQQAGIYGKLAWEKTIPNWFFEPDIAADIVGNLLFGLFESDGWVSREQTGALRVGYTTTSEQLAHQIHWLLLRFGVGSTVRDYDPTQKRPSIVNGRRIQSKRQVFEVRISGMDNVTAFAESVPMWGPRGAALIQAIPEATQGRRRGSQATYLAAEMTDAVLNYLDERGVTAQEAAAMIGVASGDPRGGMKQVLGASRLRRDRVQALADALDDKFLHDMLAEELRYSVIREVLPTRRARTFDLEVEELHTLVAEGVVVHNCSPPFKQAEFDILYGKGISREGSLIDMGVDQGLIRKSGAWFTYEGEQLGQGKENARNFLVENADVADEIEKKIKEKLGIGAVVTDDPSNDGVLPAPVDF

[5] = target: T3, Replicative DNA helicase DnaB (Mycobacterium tuberculosis, UniProt P9WMR3); test: DnaB intein splicing inhibitors, dose response, biochemical, cell-free fluorescence (AID 449749); assay type: functional
T3 sequence (P9WMR3 whole entry): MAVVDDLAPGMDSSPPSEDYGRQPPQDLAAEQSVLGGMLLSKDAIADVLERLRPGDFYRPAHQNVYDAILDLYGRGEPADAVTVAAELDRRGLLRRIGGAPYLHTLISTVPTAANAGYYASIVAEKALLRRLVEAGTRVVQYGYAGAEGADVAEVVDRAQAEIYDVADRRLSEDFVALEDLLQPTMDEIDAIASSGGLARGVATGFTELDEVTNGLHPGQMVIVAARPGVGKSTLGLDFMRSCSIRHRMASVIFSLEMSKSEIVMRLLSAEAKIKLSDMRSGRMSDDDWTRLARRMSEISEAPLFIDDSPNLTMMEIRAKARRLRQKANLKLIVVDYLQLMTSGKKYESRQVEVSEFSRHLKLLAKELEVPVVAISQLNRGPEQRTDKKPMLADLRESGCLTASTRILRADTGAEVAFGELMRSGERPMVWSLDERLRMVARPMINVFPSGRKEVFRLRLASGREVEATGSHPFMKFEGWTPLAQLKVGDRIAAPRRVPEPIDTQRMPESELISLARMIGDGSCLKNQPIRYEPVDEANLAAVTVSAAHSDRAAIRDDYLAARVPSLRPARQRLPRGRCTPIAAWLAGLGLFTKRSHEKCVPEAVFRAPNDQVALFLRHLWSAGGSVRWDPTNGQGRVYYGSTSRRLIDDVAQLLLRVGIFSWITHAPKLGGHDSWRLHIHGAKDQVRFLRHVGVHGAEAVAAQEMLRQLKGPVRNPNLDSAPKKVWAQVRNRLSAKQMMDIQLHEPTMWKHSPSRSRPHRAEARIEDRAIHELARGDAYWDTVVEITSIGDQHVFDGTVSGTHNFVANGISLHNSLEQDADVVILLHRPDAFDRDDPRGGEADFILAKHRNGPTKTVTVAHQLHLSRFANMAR

[6] = test system: Streptococcus sp. 'group A'; test: Streptococcus pyogenes SK(-)GAS viability under kanamycin – luminescence, BacTiterGlo, confirmation, counter-screen for streptokinase expression inhibitor project, dose response (AID 1900); assay type: functional, organism-based
[7] = test system: Streptococcus; test: GAS UMAA2166 growth inhibition – luminescence, BacTiterGlo, counter-screen for streptokinase expression inhibitor project, dose response (AID 1915); assay type: functional, organism-based;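 also: potency for reduction of bacterial viability or growth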
[8] = target: T4, Streptokinase A (Streptococcus pyogenes serotype M1, UniProt P10520); test: viability-normalized secreted streptokinase activity reduction – plasminogen activation absorbance, OD405, dose response (AID 1914); assay type: functional, Streptococcus pyogenes M1 GAS;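 also: secreted streptokinase activity via plasminogen activation per viability signal from cell pellet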
T4 sequence (P10520 whole entry): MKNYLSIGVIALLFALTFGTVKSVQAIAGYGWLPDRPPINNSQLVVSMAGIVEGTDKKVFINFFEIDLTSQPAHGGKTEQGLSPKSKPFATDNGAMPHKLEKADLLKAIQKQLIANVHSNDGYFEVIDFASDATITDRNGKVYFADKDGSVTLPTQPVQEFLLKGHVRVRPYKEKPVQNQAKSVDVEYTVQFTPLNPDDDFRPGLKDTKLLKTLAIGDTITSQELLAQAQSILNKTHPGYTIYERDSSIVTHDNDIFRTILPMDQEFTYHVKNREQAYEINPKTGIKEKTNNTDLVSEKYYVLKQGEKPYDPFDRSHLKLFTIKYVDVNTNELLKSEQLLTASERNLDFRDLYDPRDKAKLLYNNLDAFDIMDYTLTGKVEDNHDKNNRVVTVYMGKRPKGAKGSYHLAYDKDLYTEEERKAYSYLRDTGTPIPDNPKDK

CCOC(=O)C1=C(C)NC(C)=C(C(=O)OC)[C@@H]1c1cccc([N+](=O)[O-])c1 [(S)-NITRENDIPINE]
AC50 [1]: 15.8 µM (inconclusive)

CCC[C@@H]1C[C@@]1(CCC)C(NC(=O)c1ccco1)c1ccc(Cl)cc1 (some centres not stated)
AC50 [1]: 25.1 µM (inconclusive)

C=C(C)c1cccc(C(C)(C)NC(=O)NC2CCN(Cc3ccccc3)CC2)c1
EC50 [2]: > 60 µM (not active)
EC50 [3]: 0.103 µM (active)

CSc1ccc(NC(=O)Nc2cccn(Cc3ccccc3F)c2=O)cc1
EC50 [2]: > 60 µM (not active)
EC50 [3]: 4.33 µM (active)

CCCC(=O)OCCNc1cc(SCc2ccco2)c2nonc2c1[N+](=O)[O-]
EC50 [4]: 1.98 µM (active)
AC50 [5]: 4.88 µM (active)

O=[N+]([O-])C(/C=C(/Cl)[N+](=O)[O-])=C(N1CCCCC1)N1CCCCC1
EC50 [4]: 8.34 µM (active)
AC50 [5]: 14.5 µM (active)
EC50 [3]: 1.25 µM (active)

CCOc1cc(/C=N\NC(=O)OC(C)(C)C)ccc1OC(=O)c1ccco1
EC50 [4]: 19.8 µM (active)
AC50 [5]: 12.8 µM (active)

CCOC(=O)c1cc(-c2ccc(OC(F)F)cc2)nc2c1c(=O)[nH]c(=O)n2C
EC50 [6]: 0.458 µM (active)
EC50 [7]: 1.97 µM (active)

CCOC(=O)Cc1n[nH]c2c1C(c1ccsc1)C(C#N)=C(N)O2 (configuration not stated)
EC50 [4]: 31.3 µM (active)
AC50 [5]: > 380 µM (inactive)

Cc1ccccc1NC(=O)NCCCCc1ccccc1
EC50 [8]: > 150 µM (not active)
EC50 [6]: > 150 µM (not active)
EC50 [7]: > 150 µM (not active)

Clc1cccc(Nc2ncnc3c2cnn3-c2ccccc2)c1
EC50 [8]: > 150 µM (not active)
EC50 [6]: 7.78 µM (active)
EC50 [7]: 6.82 µM (active)

O=C(O)COc1ccc(OCCNC[C@@H](O)COc2ccccc2)cc1
AC50 [1]: 39.8 µM (inconclusive)

CN1CCN(c2nc(-c3ccccc3)nc(-c3ccc(F)cc3)c2C#N)CC1
EC50 [2]: > 60 µM (not active)
EC50 [3]: 1.25 µM (active)

Cc1cc(Oc2ccc(-c3ccccc3)cc2)nc(N2CCOCC2)n1
EC50 [8]: 35.4 µM (active)
EC50 [6]: 49.7 µM (active)
EC50 [7]: > 150 µM (not active)

CS(=O)(=O)N1CCC2(CC1)CN(c1ccccc1)C2
AC50 [1]: 20 µM (inconclusive)

c1ccc(CCNc2ccccn2)nc1
AC50 [1]: 5.01 µM (inconclusive)

COc1ccc2cc(C(=O)/C=C/c3cc(OC)c(O)c(OC)c3)ccc2c1
EC50 [8]: > 150 µM (not active)
EC50 [6]: 5.61 µM (active)
EC50 [7]: 14.7 µM (active)

O=C(NC(=S)Nc1ccc(-c2nc3ncccc3o2)cc1)c1ccccc1F
EC50 [8]: > 150 µM (not active)
EC50 [6]: 84.3 µM (active)
EC50 [7]: 21.3 µM (active)

COC(=O)CSc1nc2sc3c(c2c(=O)n1C1CCCCC1)CCN(C)C3
EC50 [4]: 31.4 µM (active)
AC50 [5]: > 120 µM (inactive)

CN(C)CCNC(=O)c1cc(Sc2ccc(F)cc2)nc2ccccc12
EC50 [2]: > 60 µM (not active)
EC50 [3]: 0.282 µM (active)

C=C1S/C(=N/c2ccccc2Cl)N(C(=O)c2sc3ccccc3c2Cl)C12CCCCC2
EC50 [8]: 19.8 µM (active)
EC50 [6]: 20.2 µM (active)
EC50 [7]: > 150 µM (not active)

O=C(/C=C\c1ccc(Cl)cc1)N[C@@]12CCC(=O)[C@@H]3Oc4c(O)ccc5c4[C@@]31CCN(CC1CC1)[C@@H]2C5
AC50 [1]: 39.8 µM (inconclusive)

COc1ccc(Br)cc1C(=O)Nc1ccc(Cc2ccncc2)cc1
EC50 [2]: > 60 µM (not active)
EC50 [3]: 3.4 µM (active)

Cc1ccc(NC(=O)C2CCCN(C(=O)c3ccc(Cl)cc3)C2)cc1S(=O)(=O)N1CCOCC1 (configuration not stated)
EC50 [2]: > 60 µM (not active)
EC50 [3]: 26.6 µM (active)

O=C(c1cccs1)N1CCC(c2nc(O)c3nnn(Cc4ccccc4Cl)c3n2)CC1
EC50 [8]: > 150 µM (not active)
EC50 [6]: > 50 µM (not active)
EC50 [7]: > 50 µM (not active)

Nc1nc(-c2ccc(Br)cc2)c(S(=O)(=O)c2ccccc2)s1
EC50 [4]: > 380 µM (inactive)
AC50 [5]: 4.22 µM (active)

Cc1ccc(NC(=S)NC(=O)c2c(-c3ccccc3Cl)noc2C)cc1
AC50 [1]: 8.91 µM (inconclusive)

OCCNc1nc(Nc2ccc(Br)cc2)nc2ccccc12
EC50 [2]: > 30 µM (not active)
EC50 [3]: 0.801 µM (active)

COCCn1c(=O)c(-c2cc(F)cc(F)c2)nc2cnc(Nc3cccc(OC)c3)nc21
AC50 [1]: 2.51 µM (inconclusive)

CN(N)C(S)=Nc1ccc(Cl)cc1
EC50 [4]: > 380 µM (inactive)
AC50 [5]: > 380 µM (inactive)

CCCc1n[nH]c2c1C(c1cccc(OC)c1)C(C#N)=C(N)O2 (configuration not stated)
EC50 [4]: 9.09 µM (active)
AC50 [5]: 19.3 µM (active)

CCN1C(=O)C(=NNc2cccc(S(=O)(=O)N3CCOCC3)c2)C(=O)N(CC)C1=S
EC50 [4]: > 380 µM (inconclusive)
AC50 [5]: > 380 µM (inactive)

COc1ccc(C2CC(c3ccccc3)=NN2c2ccc(S(N)(=O)=O)cc2)cc1 (configuration not stated)
EC50 [2]: > 60 µM (inconclusive)
EC50 [3]: 2.83 µM (active)

Cc1cccn2c(CNCC3(c4ccccc4)CCCC3)c(C(=O)N3CCOCC3)nc12
EC50 [4]: > 380 µM (inactive)
AC50 [5]: > 380 µM (inactive)

COc1ccc(C2=NN(C(=O)/C=C/c3ccccc3)C(c3ccccc3)C2)c(OC(C)=O)c1 (configuration not stated)
EC50 [4]: 53.8 µM (active)
AC50 [5]: > 380 µM (inactive)

CCOC(=O)c1cc(-c2ccc(F)cc2)n(CCC(=O)NC2CCN(Cc3ccccc3)CC2)c1C
EC50 [2]: > 60 µM (not active)
EC50 [3]: 0.773 µM (active)

From ChEMBL document CHEMBL1201862, “PubChem BioAssay data set” (2004)
